The record followed here is patent US20240166690A1, “MULTI-TARGET CY[…] FOR OPIOID/NEUROPEPTIDE FF RECEPTORS, AND PREPARATION THEREFOR AND APPLICATION THEREOF” (SHANGHAI TIANCI LIFE SCIENCE DEVELOPMENT CO., LTD., priority 2021, published 2024).

For experiment [1], the system named is Kunming male mice. The experiment is described as follows: Photothermal tail flick experiment, subcutaneous injection. Format: in vivo. The conditions noted are these: photothermal tail flick. The procedure:
(§1) Two administration methods were used: peripheral subcutaneous administration and oral administration. Subsequently, the analgesic activity of the drug was studied using an acute pain model of photothermal tail flick in mice.
Subcutaneous administration on the back was chosen for subcutaneous administration (s.c.). A sterile 1 mL syringe was used and the drug with the volume of 0.1 mL/10 g was injected for administration. The back skin was grasped with the right hand, the needle was tilted in, and the drug was injected subcutaneously into the mouse's back. After the needle was inserted, shook it left and right, and observe to confirm that the needle had indeed entered the subcutaneous area to prevent the needle from puncturing the skin and leaking the drug.
(§2) The photothermal tail flick experiment is based on the experimental method summarized by D'Amour and Smith to optimize the experimental parameters. The experiment selected Kunming male mice with body weigh 21±2 g, and ambient temperature controlled at 22±2° C. The experimental mice were allowed to drink water freely and were moved from the breeding room to the experimental area for adaptation for 30 minutes before starting the experiment. Then the mice were grab with the right hand and the tail hang freely. Then the mice's tail were placed on a radiation light source, 2-3 mm away from the mice tail. The intensity of radiation heat was adjusted to the tail flick time of mice being 3-5 s, which is the basic pain threshold of photothermal tail flick. The irradiation time of the mice tail should not exceed 10 s to prevent scalding of the mice tail, which was the maximum latency for photothermal tail flick. After administration, time points of 10, 20, 30, 45, 60, 90, 120, 180, 240, 300, 360, and 420 minutes were selected to measure the tail flick latency of mice after administration.
(§3) The analgesic effect of drugs was generally evaluated using the maximum analgesic effect MPE (%), MPE (%)=100×[(pain threshold after administration−basic pain threshold)/(10 seconds−basic pain threshold)]. 50% effective dose (ED50) refers to the corresponding drug dose that causes a 50% effect. ED50 and 95% confidence interval were calculated using MPE (%) and the drug concentration that achieves the maximum analgesic effect MPE (%) by the statistical software GraphPad Prism 5.0. The difference in analgesic effects was statistically analyzed using one-way ANOVA (Dunnett test), *P<0.05, **P<0.01, and ***P<0.001 indicated significance of the difference between the group with only drug injected and the saline group.

Experiment [2] deals with Kunming male mice. The experiment is described as follows: Photothermal tail flick experiment, oral administration. Type of experiment: in vivo. As to conditions: for Maximum analgesic time: oral administration at the maximum analgesic dose; for Maximum analgesic time / analgesic duration: tail flick; for ED50 value (95% confidence interval), oral analgesic activity / analgesic duration: oral administration; for ED50 value (95% confidence interval), oral analgesic activity: photothermal tail flick. The procedure:
as §1
1 mL sterile syringe was used for oral administration (p.o.), the pinhead was replaced with a mouse gastric lavage needle, and […] of the drug was orally administered. The skin on the neck and back of the mouse was grasped with the left hand with the abdomen facing upwards. Noted that the mouse's entire body was fixed to vertical, which was beneficial for oral gavage. A gastric lavage needle (No. 12 needle and 1 mL syringe) was held in the right hand and was inserted to the esophagus along the upper jaw which is pressed the tongue tightly from the corner of the mouse's mouth. Gastric lavage fluid can be injected when the needle inserted 2.5 cm. The inserting length of the needle should be determined through practice in advance, as there is a sense of falling into a hole after the needle is inserted. If the injection position was appropriate, it should be very smooth. […] This can cause immediate death of the mouse after gavage.
as §2, §3

Bridge positions count the residues as written; N and C are the ends. Square brackets hold non-standard residues; d marks the D form. Peptide text beside a SMILES is read from it. NMeF = CN[C@@H](Cc1ccccc1)C(=O)O; dOrn = NCCC[C@@H](N)C(=O)O

Consider `CN1C(=O)CNC(=O)[C@H](NC(=O)[C@@H](N)Cc2ccc(O)cc2)CCCCNC(=O)C[C@@H](C(=O)N2CCC[C@H]2C(=O)N[C@@H](CCC(N)=O)C(=O)N[C@@H](CCCNC(=N)N)C(=O)N[C@@H](Cc2ccccc2)C(N)=O)NC(=O)[C@@H]1Cc1ccccc1` [Compound 1, Tyr-c[D-Lys-Gly-NMe-Phe-Asp]-Pro-Gln-Arg-Phe-NH2] (H-Y[dK]G[NMeF]DPQRF-NH2; lactam 2-5), for which the “ED50 value (95% confidence interval), analgesic activity” value with Kunming male mice [1] is on record as 0.32 (0.27 to 0.38) μg/kg. In the experiment on Kunming male mice [2], the Maximum analgesic time is 30 min; the “ED50 value (95% confidence interval), oral analgesic activity” value worked out at 1.37 µg/kg; the analgesic duration is given as 240 min.

As to `CN1C(=O)CNC(=O)[C@H](NC(=O)[C@@H](N)Cc2ccc(O)cc2)CCCNC(=O)CC[C@@H](C(=O)N2CCC[C@H]2C(=O)N[C@@H](CCC(N)=O)C(=O)N[C@@H](CCCNC(=N)N)C(=O)N[C@@H](Cc2ccccc2)C(N)=O)NC(=O)[C@@H]1Cc1ccccc1` [Compound 11, Tyr-c^[2,5][D-Orn-Gly-NMe-Phe-Glu]-Pro-Gln-Arg-Phe-NH2] (H-Y[dOrn]G[NMeF]EPQRF-NH2; lactam 2-5), in the experiment on Kunming male mice [2], the Maximum analgesic time is 20 min; the “ED50 value (95% confidence interval), oral analgesic activity” value came to 0.14 µg/kg; the analgesic duration was found to be 240 min.
